This note sets out measurements from US20250129334A1, “LINEAGE SPECIFICATION DURING STEM CELL TRANSITION” (Amniotics AB, priority 2021, published 2025).

The subject of assay [1] is HE cells. The experiment in a line: Transplantation of treated HE cells into irradiated NSG mice. It is filed as in vivo. Here is the method: Sorted human HE cells (350,000) were mixed with OP9-DL1 stroma (60,000) and subcultured for 3 days with or without DCA (3 mM) on Matrigel (16 μg/cm^2, Corning)-coated 12-well plates in HE medium (32). Between 100,000-150,000 cells from control or DCA samples were transplanted into sub lethally irradiated (300 cGy) 8-week-old female NOD/Cg-Prkdc^scid Il2^tm1Wj1/SzJ mice (NSG, The Jackson Laboratory) together with 20,000 whole BM support cells from C57BV6.SJL mice (CD45.1^+/CD45.2^+, in house breeding). Cells were transplanted in single cell solution in 250 μL PBS with 2% FBS through intravenous tail vein injection. Drinking water of transplanted NSG mice was supplemented with ciprofloxacin (125 mg/L, HEXAL) for 3 weeks after transplantation to prevent infection. Mice were housed in a controlled environment with 12-hour light-dark cycles with chow and water provided ad libitim. Experiments and animal care were performed in accordance with the Lund University Animal Ethical Committee.
Peripheral blood (PB) was collected from the tail vein into EDTA-coated microvette tubes (Sarstedt, Cat #20.1341.100). […]
Bone marrow was analyzed at the 12-week transplantation endpoint. […]

The subject of assay [2] is HBE1, HBG1-2, HBA1-2 transcripts. Nature of the assay: Globin transcript q-PCR in CFU colonies. It is filed as cell-based, human. Conditions: normalized to KLF1, UK5099 10 μM. As for the experimental part:
Subcultured HE cells were treated with StemPro Accutase Cell Dissociation Reagent for 2 minutes at 37° C. and dissociated cells were resuspended in 3 ml Methocult H4230 (STEMCELL Technologies, France) (prepared according to manufacturer's instructions, with 20 mL Iscove's Modified Dulbecco's Medium containing 2.5 μg hSCF, 5 μg GM-CSF, 2.5 μg IL-3 and 500 U EPO). Each mixture was divided onto 2 wells of a non-tissue culture treated 6-well plate. Following a 12-day incubation in a humidified incubator at 37° C., 5% CO2, 20% O2, colonies were morphologically distinguished and scored. For globin analysis, colonies in Methocult wells were harvested with PBS, washed thoroughly and frozen in RLT buffer with β-mercaptoethanol. Following RNA extraction and RT (Qiagen), gene expression was assessed with taqman probes by q-PCR. The taqman probes used for this assay are HBA1/2 (Hs00361191_g1), HBE1 (Hs00362216_m1), HBG2/1 (Hs00361131_g1) and KLF1 (Hs00610592_m1).

The subject of assay [3] is HE cells. Nature of the assay: Lymphoid (NK) differentiation assay on OP9-DL1 stroma. It counts as cell-based, human. Conditions: 3-day treatment, 35-day co-culture; UK5099 10 μM, DCA 3 mM. Here is the method:
Subculture day 3 HE cells cultured in the presence of UK5099 (10 μM) or DCA (3 mM or 10 mM), as indicated, were collected after a 2-minute incubation at 37° C. with StemPro Accutase Cell Dissociation Reagent and seeded onto 80% confluent OP9-DL1 stroma. Cells were cultured in OP9 medium (OptiMEM medium with Glutamax (Invitrogen) with 10% FCS, 1% penicillin-streptomycin solution (Thermo Fisher Scientific) and 1% 2-mercaptoethanol (Invitrogen)) with SCF (10 ng/ml), FLT3-L (10 ng/ml), IL-2 (5 ng/ml), IL-7 (5 ng/ml, first 15 days only) and IL-15 (10 ng/ml) with passaging onto new OP9-DL1 stroma every week, as described previously (Renoux, V. M. et al. Identification of a Human Natural Killer Cell Lineage-Restricted Progenitor in Fetal and Adult Tissues. Immunity 43, 394-407 (2015)). At day 35 of co-culture, cells were analyzed on a BD LSRFortessa.

As to `O=C(O)C(Cl)Cl` [DCA, dichloroacetate], the “increase of CLP (common lymphoid progenitor)” value in the assay on HE cells [1] (FIG. 3, n, BM week 12) was 3 fold. Further, the “human CD45+ cells in the peripheral blood” value with HE cells [1] (week 8, 3-day DCA-treated HE cells) is given as “around 1%”.

As for `N#CC(=Cc1cn(-c2ccccc2)c2ccccc12)C(=O)O` [UK5099, 2-Cyano-3-(1-phenyl-1H-indol-3-yl)-2-propenoic acid], in assay [2], the “HBE1 (embryonic) globin transcripts” value is given as “significant increase” and the “HBG1-2 (fetal) globin transcripts” value is “significant increase”. In addition, in assay [2] (DCA 3 mM), the “HBA1-2 (adult globin) expression” value is listed as “did not have an effect”. Also, in the assay on HE cells [3], the “NK cell differentiation (CD45+CD56+ cells)” value is given as “impaired NK cell formation”.
